Assay results taken from patent publication US10889849B2, “Oxidized glutathione assay” (PROMEGA CORPORATION, priority 2010, dated 2021).

Key:
Format in all cases: cell-based
HepG2 cells = assay: Determination of GSH:GSSG ratio in HepG2 cells; details: HepG2 cells, 5,000 cells/well, 60 minutes with 40 uM menadione
Procedure: (§1) The assay is optimized for low cell densities such as HeLa or HepG2 cells at 5,000-10,000 cells per well and hepatocytes at 10,000 to 20,000 cells/well. HeLa or HepG2 cells were plated on Corning Costar 3903 96-well flat bottom tissue culture-treated white with clear bottom. Hepatocytes were plated on BD BioCoat™ 4650 96-well Collagen 1 Cellware. Hepatocytes were cultured with vendor recommended hepatocyte media. If clear walled tissue culture plates are used, a transfer step must be performed after Luciferase Detection Reagent (LDR) addition to get the reactions into luminometer plates. Plate cells and incubate overnight at 37° C. in a 5% CO2 culture incubator.
(§2) Menadione is a Reactive Oxygen Species (ROS) inducer and is used as a positive control. 40 μM Menadione was prepared in Krebs-Ringer, Krebs-Henseleit, or Hank's Balanced Salts (HBSS) buffers. Other buffers […] to dilute the Menadione as components of cell culture media, such as serum, phenol red, and cysteine, can interfere with the assay chemistry. No treatment controls (vehicle only) were performed by exchanging the culture media on the cells with buffer+ vehicle at the same time as treating the cells with Menadione.
(§3) The below reagent was prepared for measurement of GSSG. […]
(§4) Compound treatment was removed and discarded from the adherent cells. […] Again, the plated was shook briefly, incubated at room temperature for 10 min, and luminescence read.
(§5) The […] is calculated by dividing the moles of GSH in a sample by the moles of GSSG in a sample. Because each mole of GSSG produces two moles of GSH, and the assay produces a signal from all of the GSH produced by reduction of GSSG, a 2-fold adjustment is required in the number of moles of GSH quantified by the GSH standard curve.
(§6) For background, the luminescence (RLUs) generated from no cell control or 0 μM GSH from the standard curve was used. […] The GSH/GSSG ratio for untreated cells was calculated using the formula: […]
iii. […] GSSG and GSH were detected by the method described in A. The ratio GSH/GSSG was calculated as described in B.

Rat hepatocytes = assay: Determination of GSH:GSSG ratio in rat hepatocytes; details: Rat hepatocytes, 20,000 cells/well, 60 minutes with 40 uM menadione
Procedure: as §1
as §2, with “Menadione. […]” for “Menadione.”
as §4, §5, §6
ii: Rat hepatocytes, 20,000 cells/well, were treated as in i. GSSG and GSH were detected by the method described in A. The ratio GSH/GSSG was calculated as described in B.

HeLa cells = assay: Determination of GSH:GSSG ratio in HeLa cells; details: HeLa cells, 5,000 cells/well, 60 minutes with 40 uM menadione
Procedure: as §1, §2, §3, §4, §5, §6
i. […] GSSG and GSH were detected by the method described in A. The ratio GSH/GSSG was calculated as described in B.

A549 cells [1] = assay: Detection of reactive oxygen effects by sampling media (GSSG and GSH in cells and media); details: 1 hour
Procedure: A549 cells were plated at a density of 5,000 cells per well in a 96-well tissue culture plate in 100 ul of DMEM with 10% fetal calf serum and incubated for 48 hours at 37° C. with 10% CO2. After incubation, the media was removed, discarded, and replaced with HBSS buffer with or without 40 uM menadione. The plate was then incubated for 1 hour at 37° C. with 10% CO2.
After the 1 hour treatment, the HBSS buffer from the cells was transferred to a fresh, 96-well plate. The cells were then given 100 ul of fresh HBSS buffer and a concentrated solution of PLB with or without NEM. The following conditions (in triplicate) resulted from these manipulations: • 1. Cell GSH and GSSG were measured from the lysate of cells where the vehicle or menadione treatment with HBSS buffer was removed prior to lysis. • 2. Media GSH and GSSG were measure from the HBSS buffer transferred from the cells. • 3. Total GSH and total GSSG were measured from the lysate of cells treated with HBSS buffer where the HBSS buffer was not removed prior to addition of PLB.
For measurement of GSSG, samples were given a mixture containing GST-22, 25 mM NEM, and 1× Passive Lysis Buffer. For measurement of GSH, samples were given a mixture containing GST-22 and 1× Passive Lysis Buffer. Samples were incubated for 5 minutes at room temperature, and 25 μl LDR with 100 mM DTT and GST added. Samples were then incubated for 30 minutes at room temperature, and 150 μl LDR added. Luminescence was detected after 15 minute room temperature incubation.
It should be noted that one could expect the total glutathione species from the media and the cells to be about equal to the total well measurement. This calculation is shown in the third row of Table 7. The ratio of GSH to GSSG was also determined (FIG. 10).

A549 cells [2] = assay: Measurements of cell lysis (LDH release and ATP levels); details: menadione treatment, data not shown
Text: From the data in Table 7 and FIG. 9, it is clear that measurement of GSSG in the media alone would have indicated some effect of the menadione treatment on the cells.

Jurkat cells = assay: Determination of GSH:GSSG ratio in Jurkat cells; details: 60 minutes with 40 uM menadione
Procedure: Suspension cells, such as Jurkat or […], are washed in Krebs-Ringer, Krebs-Henseleit, or Hank's Balanced Salts (HBSS) buffers to remove traces of medium and serum. Cells are then counted and diluted in one of the above buffers at the desired density. For Jurkat cells, 10,000 to 20,000 cells/well were used. 20 μl of cell suspension (at the desired density) were then added to wells of a 96-well plate. Enough wells with cells were plated for test compound treatment, vehicle-only treatment and no treatment controls. […]
as §4, §5, §6
iv. […] GSSG and GSH were detected by the method described in A. The ratio GSH/GSSG was calculated as described in B

[3] = 40 uM menadione in HBSS, HBSS buffer transferred from the cells
[4] = 40 uM menadione in HBSS, lysate of cells, buffer removed prior to lysis
[5] = 40 uM menadione, HBSS buffer not removed prior to addition of PLB
[6] = 40 uM menadione, calculated sum of cell and media

With `CC1=CC(=O)c2ccccc2C1=O` [Menadione] the “Ratio GSH/GSSG, treated” value (HepG2 cells) was 1.5, the “Treated Net RLU, GSH” value (HepG2 cells) was 4162074 RLU and the “Treated Net RLU, GSSG” value (HepG2 cells) was 2364652 RLU. The “Ratio GSH/GSSG, treated” value (Rat hepatocytes) was 1.1, the “Treated Net RLU, GSH” value (Rat hepatocytes) was 10722488 RLU and the “Treated Net RLU, GSSG” value (Rat hepatocytes) was 6900404 RLU. The “Ratio GSH/GSSG, treated” value (HeLa cells) was 2.2, the “Treated Net RLU, GSH” value (HeLa cells) was 12364719 RLU and the “Treated Net RLU, GSSG” value (HeLa cells) was 5894364 RLU. For the same molecule, the “GSH, averaged RLU, Media” value (A549 cells [1]; [3]) was 3,491,077 RLU, the “GSSG, averaged RLU, Media” value (A549 cells [1]; [3]) was 2,494,444 RLU and the “GSH, averaged RLU, Cell” value (A549 cells [1]; [4]) was 10,613,488 RLU. For the same molecule, the “GSSG, averaged RLU, Cell” value (A549 cells [1]; [4]) was 464,099 RLU, the “GSH, averaged RLU, Total Well” value (A549 cells [1]; [5]) was 12,903,498 RLU and the “GSSG, averaged RLU, Total Well” value (A549 cells [1]; [5]) was 3,189,598 RLU. For the same molecule, the “GSH, RLU, Total (Cell + Media)” value (A549 cells [1]; [6]) was 14,104,565 RLU, the “GSSG, RLU, Total (Cell + Media)” value (A549 cells [1]; [6]) was 2,958,543 RLU and the “Cell lysis (LDH release and ATP levels)” value (A549 cells [2]) was “did not suggest that any lysis had taken place”. The “Ratio-Treated (GSH/GSSG)” value (Jurkat cells; Jurkat cells, 10,000 cells/well) was 3.8 and the “Ratio-Treated (GSH/GSSG)” value (Jurkat cells; Jurkat cells, 20,000 cells/well) was 3.6.
